# Results taken from ChEMBL document CHEMBL1201862, “PubChem BioAssay data set” (2004).
#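 Cells were grown in 96-well plates and exposed to each compound for 48 hours at five concentrations; endpoints were interpolated linearly between bracketing concentrations, or set to the highest concentration if not reached. GI50 is the concentration that inhibits growth by half.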 The source made the active and inactive calls. Cut-off read from the data, not from the text of the source: active = GI50 up to about 1.1 µM and inactive = higher.
# Assays:
# Assay in all cases: inhibition of tumour cell growth, NCI panel, 48 h
# [1] = system: EKVX
# [2] = system: M14
# [3] = system: SK-OV-3
# [4] = system: OVCAR-4
# [5] = system: LXFL 529
# [6] = system: OVCAR-3
# [7] = system: NCI-H460
# [8] = system: RPMI-8226
# [9] = system: HL-60
# [10] = system: COLO 205
# [11] = system: SNB-78
# [12] = system: UACC-62
# [13] = system: K562
# [14] = system: LOX IMVI
# [15] = system: HOP-62
# [16] = system: SF-295
# [17] = system: TK-10
# [18] = system: HCT-116
# [19] = system: OVCAR-8
# [20] = system: 786-0
# [21] = system: SW-620
# [22] = system: NCI-H23
# [23] = system: HT-29
# [24] = system: SF-268
# [25] = system: M19-MEL
# [26] = system: SF-539
# [27] = system: SN12C
# [28] = system: NCI-H522
# [29] = system: KM12
# [30] = system: NCI-H226
# [31] = system: U-251
# [32] = system: IGROV-1
# [33] = system: SK-MEL-28
# [34] = system: CCRF-CEM
# [35] = system: DLD-1
# [36] = system: SNB-19
# [37] = system: SK-MEL-5
# [38] = system: A549
# [39] = system: DMS-273
# [40] = system: HCC 2998
# [41] = system: DMS-114
# [42] = system: RXF 393
# [43] = system: XF498
# [44] = system: KM-20L2
# [45] = system: SNB-75
# [46] = system: MOLT-4
# [47] = system: HOP-18
# [48] = system: HOP-92
# [49] = system: HCT-15
# [50] = system: NCI/ADR-RES
# [51] = system: SK-MEL-2
# [52] = system: A498
# [53] = system: CAKI-1
# [54] = system: UACC-257
# [55] = system: Malme-3M
# [56] = system: UO-31
# [57] = system: OVCAR-5
# [58] = system: MCF7
compound,measurement,setting,value
O=C(CC(=O)Nc1ccc(Cl)cc1)NNCC(=O)Nc1nc(-c2ccccc2)cs1,GI50,[1],> 100 µM (inactive)
same,GI50,[2],> 100 µM (inactive)
same,GI50,[3],> 100 µM (inactive)
same,GI50,[4],> 100 µM (inactive)
same,GI50,[5],75.7 µM (inactive)
same,GI50,[6],> 100 µM (inactive)
same,GI50,[7],> 100 µM (inactive)
same,GI50,[8],> 100 µM (inactive)
same,GI50,[9],> 100 µM (inactive)
same,GI50,[10],> 100 µM (inactive)
same,GI50,[11],> 100 µM (inactive)
same,GI50,[12],47.5 µM (inactive)
same,GI50,[13],72.4 µM (inactive)
same,GI50,[14],> 100 µM (inactive)
same,GI50,[15],> 100 µM (inactive)
same,GI50,[16],> 100 µM (inactive)
same,GI50,[17],> 100 µM (inactive)
same,GI50,[18],> 100 µM (inactive)
same,GI50,[19],> 100 µM (inactive)
same,GI50,[20],> 100 µM (inactive)
same,GI50,[21],> 100 µM (inactive)
same,GI50,[22],> 100 µM (inactive)
same,GI50,[23],> 100 µM (inactive)
same,GI50,[24],> 100 µM (inactive)
same,GI50,[25],> 100 µM (inactive)
same,GI50,[26],> 100 µM (inactive)
same,GI50,[27],> 100 µM (inactive)
same,GI50,[28],> 100 µM (inactive)
same,GI50,[29],> 100 µM (inactive)
same,GI50,[30],> 100 µM (inactive)
same,GI50,[31],> 100 µM (inactive)
same,GI50,[32],> 100 µM (inactive)
same,GI50,[33],> 100 µM (inactive)
same,GI50,[34],> 100 µM (inactive)
same,GI50,[35],> 100 µM (inactive)
same,GI50,[36],> 100 µM (inactive)
same,GI50,[37],> 100 µM (inactive)
same,GI50,[38],> 100 µM (inactive)
same,GI50,[39],> 100 µM (inactive)
same,GI50,[40],> 100 µM (inactive)
same,GI50,[41],> 100 µM (inactive)
same,GI50,[42],> 100 µM (inactive)
same,GI50,[43],> 100 µM (inactive)
same,GI50,[44],59.6 µM (inactive)
same,GI50,[45],> 100 µM (inactive)
same,GI50,[46],> 100 µM (inactive)
same,GI50,[47],> 100 µM (inactive)
O=C1NC(c2cccc3ccccc23)Nc2ccc(O)cc21 (stereo not given),GI50,[1],42.3 µM (inactive)
same,GI50,[3],41.1 µM (inactive)
same,GI50,[48],35 µM (inactive)
same,GI50,[4],1.1 µM (active)
same,GI50,[6],24.5 µM (inactive)
same,GI50,[7],28 µM (inactive)
same,GI50,[8],24.2 µM (inactive)
same,GI50,[9],6.14 µM (inactive)
same,GI50,[10],34.1 µM (inactive)
same,GI50,[11],40.3 µM (inactive)
same,GI50,[12],21 µM (inactive)
same,GI50,[13],8.57 µM (inactive)
same,GI50,[14],16.2 µM (inactive)
same,GI50,[15],31.8 µM (inactive)
same,GI50,[49],11 µM
same,GI50,[16],27.5 µM (inactive)
same,GI50,[50],16 µM (inactive)
same,GI50,[51],20.4 µM (inactive)
same,GI50,[18],32.1 µM (inactive)
same,GI50,[19],36.9 µM (inactive)
same,GI50,[21],17.6 µM (inactive)
same,GI50,[22],34 µM (inactive)
same,GI50,[23],40.5 µM (inactive)
same,GI50,[24],35.6 µM (inactive)
same,GI50,[25],28.6 µM (inactive)
same,GI50,[52],23.9 µM (inactive)
same,GI50,[26],33 µM (inactive)
same,GI50,[27],39.9 µM (inactive)
same,GI50,[28],22.3 µM (inactive)
same,GI50,[29],23.4 µM (inactive)
same,GI50,[30],19.5 µM (inactive)
same,GI50,[31],38.8 µM (inactive)
same,GI50,[53],30.5 µM (inactive)
same,GI50,[32],35.1 µM (inactive)
same,GI50,[33],47.1 µM (inactive)
same,GI50,[34],20.2 µM (inactive)
same,GI50,[35],33.5 µM (inactive)
same,GI50,[54],23.4 µM (inactive)
same,GI50,[36],58.1 µM (inactive)
same,GI50,[37],23.8 µM (inactive)
same,GI50,[38],33.4 µM (inactive)
same,GI50,[39],10.4 µM (inactive)
same,GI50,[40],27.2 µM (inactive)
same,GI50,[41],7.35 µM (inactive)
same,GI50,[42],31 µM (inactive)
same,GI50,[43],24.7 µM (inactive)
same,GI50,[44],40.3 µM (inactive)
same,GI50,[45],38.6 µM (inactive)
same,GI50,[55],24.4 µM (inactive)
same,GI50,[46],9.48 µM (inactive)
same,GI50,[56],30.2 µM (inactive)
same,GI50,[57],32.6 µM (inactive)
same,GI50,[58],16.1 µM (inactive)
same,GI50,[47],43.3 µM (inactive)
CCCCC1=C(Br)C(=C(Br)Br)OC1=O,GI50,[1],2.49 µM (inactive)
same,GI50,[3],17.6 µM (inactive)
same,GI50,[48],11 µM (inactive)
same,GI50,[4],1.79 µM (inactive)
same,GI50,[6],2.55 µM (inactive)
same,GI50,[7],4.56 µM (inactive)
same,GI50,[8],0.379 µM (active)
same,GI50,[9],1.85 µM (inactive)
same,GI50,[10],3.01 µM (inactive)
same,GI50,[11],6.01 µM (inactive)
same,GI50,[12],2.42 µM (inactive)
same,GI50,[13],3.32 µM (inactive)
same,GI50,[14],1.87 µM (inactive)
same,GI50,[15],7.96 µM (inactive)
same,GI50,[49],2.2 µM
same,GI50,[16],10.6 µM (inactive)
same,GI50,[50],4.14 µM (inactive)
same,GI50,[51],2.79 µM (inactive)
same,GI50,[18],3.02 µM (inactive)
same,GI50,[19],3.17 µM (inactive)
same,GI50,[21],3.34 µM (inactive)
same,GI50,[22],4.37 µM (inactive)
same,GI50,[23],3.08 µM (inactive)
same,GI50,[24],2.61 µM (inactive)
same,GI50,[25],2.74 µM (inactive)
same,GI50,[52],15.2 µM (inactive)
same,GI50,[26],3.26 µM (inactive)
same,GI50,[27],2.75 µM (inactive)
same,GI50,[28],1.86 µM (inactive)
same,GI50,[29],3.29 µM (inactive)
same,GI50,[30],4 µM (inactive)
same,GI50,[31],5.47 µM (inactive)
same,GI50,[53],2.15 µM (inactive)
same,GI50,[32],2.25 µM (inactive)
same,GI50,[33],2.78 µM (inactive)
same,GI50,[34],2.45 µM (inactive)
same,GI50,[35],1.9 µM (inactive)
same,GI50,[54],2.48 µM (inactive)
same,GI50,[36],7.89 µM (inactive)
same,GI50,[37],3.71 µM (inactive)
same,GI50,[38],17.1 µM (inactive)
same,GI50,[39],2.74 µM (inactive)
same,GI50,[40],6.31 µM (inactive)
same,GI50,[41],2.07 µM (inactive)
same,GI50,[42],2.09 µM (inactive)
same,GI50,[43],7.62 µM (inactive)
same,GI50,[44],8.65 µM (inactive)
same,GI50,[45],5.64 µM (inactive)
same,GI50,[55],2.25 µM (inactive)
same,GI50,[46],1.83 µM (inactive)
same,GI50,[56],11.9 µM (inactive)
same,GI50,[57],16.5 µM (inactive)
same,GI50,[58],3.54 µM (inactive)
same,GI50,[47],3.94 µM (inactive)
